Reference: patent EP0096116B1, “Thiophene derivative having a mucoregulating and anticough activity, process for its preparation and pharmaceutical compositions containing it” (AUSONIA FARMACEUTICI S.r.l., priority 1982, dated 1983)

Legend:
[1] = Acute toxicity (method of Litchfield and Wilcoxon), mouse; conditions: Swiss, in vivo
Excerpt: (§1) The acute toxicity has been determined in Swiss mouses and in Wistar rats for different administration routes, according to the method of Litchfield J. T. and Wilcoxon [J. Pharm. Exp. Therap. 96,99-113 (1949)].

[2] = Pharmacokinetic tests after oral administration; assay type: in vivo; conditions: oral administration of I and sobrerol in equimolar doses, in the animal
[3] = tested on: tracheo-bronchial mucus from rabbits; assay: Fluidifying activity in vivo, microviscosimeter on tracheo-bronchial mucus; conditions: 500 mg/kg/os, rabbit
Excerpt: The fluidifying effect has been determined with the microviscosimeter on the tracheo-bronchial mucus from rabbits after administration by oral route, comparing I with sobrerol, at the doses hereinafter stated.

male Wistar rats = assay: Bronchosecretogogue activity (Mawatari technique); assay type: in vivo, rat; conditions: 500 mg/kg/os, FlNa = Sodium fluoresceine
Excerpt: The broncosecretogogue activity has been determined in male Wistar rats by per os administration according to the method of Mawatari [Mawatari H., Kagoshima Daigaku, Igaku-Zasshi, 27, 561 (1976)], comparing I with carboxymethylcysteine, sobrerol and guaiphenesin at the doses hereinafter stated.

[4] = Acute toxicity (method of Litchfield and Wilcoxon), rat; conditions: Wistar, in vivo
Excerpt: as §1

[5] = Solubility of the isolated compound; assay type: physicochemical
Excerpt: 73 Grams of an oil, impossible to crystallize but perfectly pure in TLC, are obtained.

## CC1=CCC(C(C)(C)O)CC1OC(=O)c1cccs1 (centres unmarked) [Compound I, thiophen-2-carboxylate of 2-methyl-5-(1-hydroxy-1-methylethyl)-cyclohexen-2-yl]
[1]; ip
  LD50: 2500 mg/kg
[1]; oral, os
  LD50: > 4000 mg/kg
[2]
  sobrerol concentrations at pulmonary level: higher sobrerol concentrations at pulmonary level
[3]
  % Reduction of the mucus viscosity: 39.8%
Male Wistar rats
  % Increase of FlNa in comparison with controls: 76.4%
[4]; ip
  LD50: 2650 mg/kg
[4]; oral, os
  LD50: > 4000 mg/kg
[5]; common organic solvents
  solubility in the common organic solvents: soluble in the common organic solvents
[5]; water
  solubility in water: almost insoluble in water

## CC1=CCC(C(C)(C)O)CC1O (centres unmarked) [Sobrerol, 2-methyl-5-(1-hydroxy-1-methyl-ethyl)-2-cyclohexen-1-ol, reference compound]
[3]
  % Reduction of the mucus viscosity: 15.6%
Male Wistar rats
  % Increase of FlNa in comparison with controls: 33.4%
